From patent publication US20260364077A1, “Method for Predicting Success in Test Subject of Cancer Treatment Drug Which Regulates Splicing Function” (NATIONAL CANCER CENTER, priority 2022, published 2026)

Experiments:
[1] = tested on: PDX tumors (cholangiocarcinoma, pancreatic cancer, gastric cancer, endometrial cancer, uterine sarcoma); test: Therapeutic effect of E7820 in patient-derived xenograft (PDX) mouse models and relationship with gene mutations (Example 1); format: in vivo, human patient-derived tumors in NOG mice
Procedure: In 30 cases of patient-derived xenograft (PDX) mouse models, the therapeutic effect of the cancer therapeutic E7820 that regulates splicing function and the presence or absence of various gene mutations were evaluated.
PDX model mice were prepared by transplanting 2-3 mm square PDX tumor fragments subcutaneously into the back of test animals and allowing them to grow. The test animals used were NOD.Cg-Prkdcscidll2rgtmlSug/ShiJic (NOG mice), female, and 6 weeks old or older. Tumor tissues from 30 patients, including 9 cases of cholangiocarcinoma, 9 cases of pancreatic cancer, 6 cases of gastric cancer, 3 cases of endometrial cancer, and 3 cases of uterine sarcoma, were used as tumor tissues. Grouping was performed when the average tumor volume of the experimental animals reached a size suitable for grouping (approximately 200 mm^3), with each group consisting of n=3-5 mice.
From the day of grouping, E7820 was administered orally at a dose of 100 mg/kg once daily to the 30 PDX model mice prepared in 1-1. Body weight and tumor volume were measured twice a week during the observation period from the day before drug administration and from the day drug administration started (day 0) to day 21. Tumor volume was measured by measuring the long and short diameters of the tumor using calipers and calculating the tumor volume according to the following formula. For animals with no detectable tumor, the tumor volume was set to 0.00 mm^3.
Tumor volume (mm^3)=½×long diameter (mm)×short diameter (mm)×short diameter (mm)
Whole exome sequencing (WES), one of the next-generation sequencing methods, was performed on genomic DNA extracted from the PDX using the NovaSeq 6000 system (Illumina), and mutation analysis was conducted.

DLD-1 cells (parental) = test: Growth inhibition of DLD-1 cells (parental), 12-day culture, photographed (Example 3); format: cell-based; settings: day 12
Procedure: (§1) DLD-1 cells (parental), DLD-1-BRCA2 KO (BRCA2 KO), or DLD-1-BRCA2 KO+BRCA2 WT (BRCA2 KO+WT) were seeded at 3×10^3 cells per well in a 6-well plate and incubated at 37 °C under 5% CO2. After removing the medium, a medium containing no drug, or containing 100 nM E7820, 1 μM E7820, 1 μM Indisulam (E7070), or 1 μM olaparib was added, and the cells were cultured at 37 °C under 5% CO2. The medium was replaced with fresh medium containing the same concentration of the drug on days 3, 6, and 9, with the day of drug addition being day 0. On day 12, the cells were photographed, and the sensitivity of the cells to each drug was evaluated.

[2] = tested on: DLD-1-BRCA2 KO (BRCA2 KO); test: Growth inhibition of DLD-1-BRCA2 KO, 12-day culture, photographed (Example 3); format: cell-based; settings: 1 μM; day 12
Procedure: as §1

[3] = tested on: DLD-1-BRCA2 KO+BRCA2 WT (BRCA2 KO+WT); test: Growth inhibition of DLD-1-BRCA2 KO+BRCA2 WT, 12-day culture, photographed (Example 3); format: cell-based; settings: 1 μM; day 12
Procedure: as §1

RBM39 (CAPERα) = settings: mechanism of action; Non Patent Literature 1; cited from earlier work
γH2AX in wild-type DLD-1 = test: Induction of DNA double-strand breaks (γH2AX Western blotting) in wild-type DLD-1 (Example 4); format: cell-based; settings: 1 μM; 72 hours
Procedure: DLD-1 cells (parental), DLD-1-BRCA2 KO (BRCA2 KO), or DLD-1-BRCA2 KO+BRCA2 WT (BRCA2 KO+WT) were seeded at 1×10^6 cells per well in a 6-well plate and incubated at 37 °C under 5% CO2. After removing the medium, a medium containing no drug, or containing 1 μM E7820, 1 μM Indisulam (E7070), or 1 μM olaparib was added, and the cells were cultured at 37 °C under 5% CO2 for 72 hours. After removing the medium, the cells were washed with PBS, cooled on ice, and RIPA buffer (containing protease and phosphatase inhibitors, Proteintech) was added. The cells were collected using a cell scraper. The collected samples were incubated on ice for 30 minutes, then centrifuged at 12,000×g for 15 minutes at 4 °C to pellet the cell debris. The supernatant was transferred to a new microtube without touching the pellet to obtain the lysate. The obtained lysate was used for SDS-PAGE, membrane transfer, and Western blotting to evaluate the induction of DNA double-strand breaks. The antibodies used for Western blotting were Anti-phospho-Histone H2A.X (Ser139) Antibody (anti-yH2AX antibody, cat #05-636, Sigma-Aldrich) and GAPDH (14C10) Rabbit mAb (anti-GAPDH antibody, cat #2118, Cell Signaling Technology).

[4] = 100 mg/kg orally once daily, day 21, among 14 cases with tumor reduction
[5] = 100 mg/kg orally once daily, day 21, among 16 cases without tumor reduction

| Compound | number of cases with mutations in one or more of BRCA1, BRCA2, ATM, ATR, and BAP1 among the 14 cases with tumor reduction effect [1, 4] | percentage of cases with mutations in one or more of BRCA1, BRCA2, ATM, ATR, and BAP1 among the 14 cases with tumor reduction effect [1, 4] | number of cases with mutations in one or more of the five genes among the 16 cases without tumor reduction effect [1, 5] | percentage of cases with mutations in one or more of the five genes among the 16 cases without tumor reduction effect [1, 5] | PDX model mice in which the tumor volume on day 21 was smaller than on day 0 (tumor reduction effect) ([1]; 100 mg/kg orally once daily, day 21 vs day 0) | cases in which no tumor reduction effect was observed ([1]; 100 mg/kg orally once daily, day 21 vs day 0, 30 PDX models) | tumor reduction effect in model mouse transplanted with a tumor having a mutation in a homologous recombination repair-related gene ([1]; PDX model mouse, tumor with mutation in homologous recombination repair-related gene) | growth inhibitory effect (DLD-1 cells (parental); 100 nM) | growth inhibitory effect (DLD-1 cells (parental); 1 μM) | growth inhibitory effect [2] | induction of cell death [2] | remaining cells [2] | growth inhibitory effect [3] | growth of surviving cells [3] | promotion of the proteasomal degradation of RBM39 (RBM39 (CAPERα)) | growth inhibitory effect (DLD-1 cells (parental); 1 pM (so in the source)) | γH2AX levels (γH2AX in wild-type DLD-1) |
| --- | --- | --- | --- | --- | --- | --- | --- | --- | --- | --- | --- | --- | --- | --- | --- | --- | --- |
| Cc1ccc(NS(=O)(=O)c2cccc(C#N)c2)c2[nH]cc(C#N)c12 [E7820, N-(3-cyano-4-methyl-1H-indol-7-yl)-3-cyanobenzenesulfonamide] | 11 cases | 79% | 3 cases | 19% | 14 out of the 30 PDX model mice | 16 cases | high tumor reduction effect | no growth inhibitory effect was observed | no growth inhibitory effect was observed | significant growth inhibitory effects | induction of cell death were observed | almost no remaining cells | growth inhibitory effects were observed | the growth of surviving cells was observed | promotion of the proteasomal degradation of RBM39 |  |  |
| NS(=O)(=O)c1ccc(S(=O)(=O)Nc2cccc3c(Cl)c[nH]c23)cc1 [Indisulam, N-(3-chloro-1H-indol-7-yl)-4-sulfamoylbenzenesulfonamide] |  |  |  |  |  |  |  |  |  | significant growth inhibitory effects | induction of cell death were observed | almost no remaining cells | growth inhibitory effects were observed | the growth of surviving cells was observed | promotion of the proteasomal degradation of RBM39 | no growth inhibitory effect was observed |  |
| Nc1ccc(S(=O)(=O)Nc2cnc3c(Cl)cccc3n2)cc1 [NSC339004, 4-amino-N-(5-chloroquinoxalin-2-yl)benzenesulfonamide] |  |  |  |  |  |  |  |  |  |  |  |  |  |  | promotion of the proteasomal degradation of RBM39 |  |  |
| O=C(c1cc(Cc2n[nH]c(=O)c3ccccc23)ccc1F)N1CCN(C(=O)C2CC2)CC1 [olaparib] |  |  |  |  |  |  |  |  | no growth inhibitory effect was observed | significant growth inhibitory effects | induction of cell death were observed | almost no remaining cells | growth inhibitory effects were observed | the growth of surviving cells was observed |  |  | increase in γH2AX levels |
